Experimental data as given in ChEMBL document CHEMBL3414438, “5'-C-Ethyl-tetrazolyl-N(6)-substituted adenosine and 2-chloro-adenosine derivatives as highly potent dual acting A1 adenosine receptor agonists and A3 adenosine receptor antagonists” (J Med Chem, 2015).
pEC50, pKi: −log10 of the molar value. Active and inactive are the calls of the source. The calls are words filed in the database; no cut-off is given here.

Assays:
Adenosine receptor A1 [1] = biological target: T1, Adenosine receptor A1 (Homo sapiens, UniProt P30542); assay: (§1) Agonist activity at human recombinant adenosine A1 receptor transfected in CHO cells assessed as inhibition of forskolin-induced adenylyl cyclase activity; assay type: functional, cell-based
T1 sequence (P30542 whole entry): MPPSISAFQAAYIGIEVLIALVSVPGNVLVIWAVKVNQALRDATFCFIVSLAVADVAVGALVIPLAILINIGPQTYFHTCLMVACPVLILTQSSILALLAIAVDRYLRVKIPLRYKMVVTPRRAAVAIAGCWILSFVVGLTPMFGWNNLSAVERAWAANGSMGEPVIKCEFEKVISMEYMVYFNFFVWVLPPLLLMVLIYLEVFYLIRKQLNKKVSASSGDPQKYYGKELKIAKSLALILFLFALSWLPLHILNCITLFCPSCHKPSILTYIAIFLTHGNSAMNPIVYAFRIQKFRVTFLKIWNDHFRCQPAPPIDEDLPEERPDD

[2] = biological target: T2, Adenosine receptor A1 (Homo sapiens) (UniProt P30542); assay: as §1; assay type: functional, cell-based
T2 sequence (whole entry): T1 sequence (P30542 whole entry)

[3] = biological target: T3, Adenosine receptor A2b (Homo sapiens) (UniProt P29275); assay: Partial agonist activity at human recombinant adenosine A2B receptor transfected in CHO cells assessed as induction of adenylyl cyclase activity relative to NECA; assay type: functional, cell-based
T3 sequence (whole entry): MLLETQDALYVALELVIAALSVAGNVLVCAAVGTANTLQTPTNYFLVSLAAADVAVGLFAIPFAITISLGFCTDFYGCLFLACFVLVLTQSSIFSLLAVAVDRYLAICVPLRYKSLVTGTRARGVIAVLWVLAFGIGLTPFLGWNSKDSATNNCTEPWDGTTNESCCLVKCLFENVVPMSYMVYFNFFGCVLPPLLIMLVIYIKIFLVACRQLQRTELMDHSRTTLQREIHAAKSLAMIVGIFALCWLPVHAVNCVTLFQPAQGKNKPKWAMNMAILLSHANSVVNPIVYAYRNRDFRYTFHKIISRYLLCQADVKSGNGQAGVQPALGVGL

Adenosine receptor A2a [4] = biological target: T4, Adenosine receptor A2a (Homo sapiens, UniProt P29274); assay: Displacement of [3H]-NECA from human recombinant adenosine A2A receptor transfected in CHO cells; assay type: cell-based
T4 sequence (P29274 whole entry): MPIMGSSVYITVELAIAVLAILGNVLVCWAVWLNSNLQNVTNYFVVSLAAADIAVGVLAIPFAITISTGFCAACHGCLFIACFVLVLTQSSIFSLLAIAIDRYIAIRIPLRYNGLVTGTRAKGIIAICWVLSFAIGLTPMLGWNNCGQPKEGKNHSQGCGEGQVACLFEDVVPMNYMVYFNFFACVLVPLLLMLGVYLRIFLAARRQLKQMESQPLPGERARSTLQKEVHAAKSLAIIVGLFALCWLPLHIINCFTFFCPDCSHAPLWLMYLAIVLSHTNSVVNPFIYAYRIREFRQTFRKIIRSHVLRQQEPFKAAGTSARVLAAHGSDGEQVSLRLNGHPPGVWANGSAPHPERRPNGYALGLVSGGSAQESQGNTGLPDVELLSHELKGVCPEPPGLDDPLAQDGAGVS

Adenosine receptor A1 [5] = biological target: T1, Adenosine receptor A1; assay: Displacement of [3H]-CCPA from human recombinant adenosine A1 receptor transfected in CHO cells; assay type: cell-based
Adenosine receptor A3 [6] = biological target: T5, Adenosine receptor A3 (Homo sapiens, UniProt P0DMS8); assay: Antagonist activity at human recombinant adenosine A3 receptor transfected in CHO cells assessed as reversal of NECA-induced inhibition of forskolin-induced adenylyl cyclase activity; assay type: functional, cell-based
T5 sequence (P0DMS8 whole entry): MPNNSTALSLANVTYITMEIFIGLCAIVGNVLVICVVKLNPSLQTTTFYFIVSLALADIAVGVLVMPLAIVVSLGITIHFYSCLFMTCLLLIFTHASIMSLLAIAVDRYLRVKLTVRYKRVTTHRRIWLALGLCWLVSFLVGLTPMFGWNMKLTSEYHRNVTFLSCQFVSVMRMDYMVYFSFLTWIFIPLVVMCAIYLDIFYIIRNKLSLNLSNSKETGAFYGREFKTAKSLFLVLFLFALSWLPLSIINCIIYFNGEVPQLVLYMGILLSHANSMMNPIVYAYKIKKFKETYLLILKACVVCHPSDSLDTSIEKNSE

Adenosine receptor A2b = biological target: T6, Adenosine receptor A2b (Homo sapiens, UniProt P29275); assay: (§2) Agonist activity at human recombinant adenosine A2B receptor transfected in CHO cells assessed as induction of adenylyl cyclase activity; assay type: functional, cell-based
T6 sequence (P29275 whole entry): T3 sequence (whole entry)

Adenosine receptor A3 [7] = biological target: T5, Adenosine receptor A3; assay: Displacement of [3H]-HEMADO from human recombinant adenosine A3 receptor transfected in CHO cells; assay type: cell-based
Adenosine receptor A2a [8] = biological target: T4, Adenosine receptor A2a; assay: Agonist activity at human recombinant adenosine A2A receptor transfected in CHO cells assessed as induction of adenylyl cyclase activity; assay type: functional, cell-based
[9] = biological target: T3, Adenosine receptor A2b (Homo sapiens); assay: as §2; assay type: functional, cell-based
Homo sapiens [10] = species: Homo sapiens; assay: Selectivity ratio of Ki for human recombinant adenosine A2A receptor to Ki for human recombinant adenosine A1 receptor
Homo sapiens [11] = species: Homo sapiens; assay: Selectivity ratio of Ki for human recombinant adenosine A2A receptor to Ki for human recombinant adenosine A3 receptor

CCn1nnc([C@H]2O[C@@H](n3cnc4c(NCc5ccccc5I)nc(Cl)nc43)[C@H](O)[C@@H]2O)n1
pEC50 (Adenosine receptor A1 [1]): 7.19 | Efficacy [2]: > 90% | Efficacy [3]: 76% | pKi (Adenosine receptor A2a [4]): 6.97 | pKi (Adenosine receptor A1 [5]): 8.62 | pEC50 (Adenosine receptor A3 [6]): 7.88 | pEC50 (Adenosine receptor A2b): 6.08 | pKi (Adenosine receptor A3 [7]): 9.23 | pEC50 (Adenosine receptor A2a [8]): 8.04

CCn1nnc([C@H]2O[C@@H](n3cnc4c(NC)ncnc43)[C@H](O)[C@@H]2O)n1
pEC50 (Adenosine receptor A1 [1]): 7.01 | Efficacy [2]: > 90% | pKi (Adenosine receptor A2a [4]): 6.11 | pKi (Adenosine receptor A1 [5]): 8.45 | pEC50 (Adenosine receptor A3 [6]): 8.20 | Efficacy [9]: > 90% | pEC50 (Adenosine receptor A2b): 5.83 | pKi (Adenosine receptor A3 [7]): 9.32 | pEC50 (Adenosine receptor A2a [8]): 5.77 | Efficacy (Adenosine receptor A2a [8]): > 90%

CCn1nnc([C@H]2O[C@@H](n3cnc4c(N[C@H]5C[C@@H]6CC[C@@H]5C6)ncnc43)[C@H](O)[C@@H]2O)n1 (racemic)
pEC50 (Adenosine receptor A1 [1]): 8.33 | Efficacy [2]: > 90% | pKi (Adenosine receptor A2a [4]): 7.19 | pKi (Adenosine receptor A1 [5]): 9.34 | pEC50 (Adenosine receptor A3 [6]): 7.08 | Efficacy [9]: > 90% | pEC50 (Adenosine receptor A2b): 6.00 | pKi (Adenosine receptor A3 [7]): 8.05 | pEC50 (Adenosine receptor A2a [8]): 8.11 | Efficacy (Adenosine receptor A2a [8]): > 90%

CCn1nnc([C@H]2O[C@@H](n3cnc4c(NC)nc(Cl)nc43)[C@H](O)[C@@H]2O)n1
pEC50 (Adenosine receptor A1 [1]): 6.60 | Efficacy [2]: > 90% | Activity [3]: 75% | pKi (Adenosine receptor A2a [4]): 5.47 | pKi (Adenosine receptor A1 [5]): 8.07 | Ratio Ki (Homo sapiens [10]): 390 | Ratio Ki (Homo sapiens [11]): 7800 | pEC50 (Adenosine receptor A3 [6]): 8.11 | pEC50 (Adenosine receptor A2b): 5.45 | pKi (Adenosine receptor A3 [7]): 9.37 | pEC50 (Adenosine receptor A2a [8]): 6.62 | Efficacy (Adenosine receptor A2a [8]): > 90%

CCn1nnc([C@H]2O[C@@H](n3cnc4c(Nc5ccc(Cl)cc5F)ncnc43)[C@H](O)[C@@H]2O)n1
pEC50 (Adenosine receptor A1 [1]): 7.99 | Efficacy [2]: > 90% | pKi (Adenosine receptor A2a [4]): 7.11 | pKi (Adenosine receptor A1 [5]): 9.36 | pEC50 (Adenosine receptor A3 [6]): 7.47 | Efficacy [9]: > 90% | pEC50 (Adenosine receptor A2b): 6.28 | pKi (Adenosine receptor A3 [7]): 8.58 | pEC50 (Adenosine receptor A2a [8]): 8.08 | Efficacy (Adenosine receptor A2a [8]): > 90%

CCn1nnc([C@H]2O[C@@H](n3cnc4c(Nc5ccc(Cl)cc5F)nc(Cl)nc43)[C@H](O)[C@@H]2O)n1
pEC50 (Adenosine receptor A1 [1]): 7.19 | Efficacy [2]: > 90% | pKi (Adenosine receptor A2a [4]): 6.65 | pKi (Adenosine receptor A1 [5]): 8.78 | pEC50 (Adenosine receptor A3 [6]): 7.43 | Efficacy [9]: > 90% | pKi (Adenosine receptor A3 [7]): 8.33 | pEC50 (Adenosine receptor A2a [8]): 7.54 | Efficacy (Adenosine receptor A2a [8]): > 90%

CCn1nnc([C@H]2O[C@@H](n3cnc4c(N)ncnc43)[C@H](O)[C@@H]2O)n1
pEC50 (Adenosine receptor A1 [1]): 7.58 | Efficacy [2]: > 90% | pKi (Adenosine receptor A2a [4]): 8.09 | pKi (Adenosine receptor A1 [5]): 9.04 | pEC50 (Adenosine receptor A3 [6]): 7.03 | Efficacy [9]: > 90% | pEC50 (Adenosine receptor A2b): 6.46 | pKi (Adenosine receptor A3 [7]): 8.41 | pEC50 (Adenosine receptor A2a [8]): 8.63 | Efficacy (Adenosine receptor A2a [8]): > 90%

CCn1nnc([C@H]2O[C@@H](n3cnc4c(N)nc(Cl)nc43)[C@H](O)[C@@H]2O)n1
pEC50 (Adenosine receptor A1 [1]): 7.70 | Efficacy [2]: > 90% | pKi (Adenosine receptor A2a [4]): 7.68 | pKi (Adenosine receptor A1 [5]): 9.02 | pEC50 (Adenosine receptor A3 [6]): 7.50 | Efficacy [9]: > 90% | pEC50 (Adenosine receptor A2b): 6.27 | pKi (Adenosine receptor A3 [7]): 8.74 | pEC50 (Adenosine receptor A2a [8]): 8.42 | Efficacy (Adenosine receptor A2a [8]): > 90%

CCn1nnc([C@H]2O[C@@H](n3cnc4c(NC5CCCO5)nc(Cl)nc43)[C@H](O)[C@@H]2O)n1 (stereo partly specified)
pEC50 (Adenosine receptor A1 [1]): 8.13 | Efficacy [2]: > 90% | pKi (Adenosine receptor A2a [4]): 6.06 | pKi (Adenosine receptor A1 [5]): 8.97 | pEC50 (Adenosine receptor A3 [6]): 6.98 | Efficacy [9]: > 90% | pEC50 (Adenosine receptor A2b): 5.50 | pKi (Adenosine receptor A3 [7]): 8.02 | pEC50 (Adenosine receptor A2a [8]): 7.48 | Efficacy (Adenosine receptor A2a [8]): > 90%

CCn1nnc([C@H]2O[C@@H](n3cnc4c(NC5CCCO5)ncnc43)[C@H](O)[C@@H]2O)n1 (stereo partly specified)
pEC50 (Adenosine receptor A1 [1]): 8.06 | Efficacy [2]: > 90% | pKi (Adenosine receptor A2a [4]): 6.26 | pKi (Adenosine receptor A1 [5]): 8.91 | pEC50 (Adenosine receptor A3 [6]): 7.21 | Efficacy [9]: > 90% | pEC50 (Adenosine receptor A2b): 5.87 | pKi (Adenosine receptor A3 [7]): 7.81 | pEC50 (Adenosine receptor A2a [8]): 7.60 | Efficacy (Adenosine receptor A2a [8]): > 90%

OC[C@H]1O[C@@H](n2cnc3c(NC4CCCC4)nc(Cl)nc32)[C@H](O)[C@@H]1O
inhibition [2]: Active

CCn1nnc([C@H]2O[C@@H](n3cnc4c(NC5CC5)nc(Cl)nc43)[C@H](O)[C@@H]2O)n1
pEC50 (Adenosine receptor A1 [1]): 8.44 | Efficacy [2]: > 90% | pKi (Adenosine receptor A2a [4]): 7.21 | pKi (Adenosine receptor A1 [5]): 9.51 | pEC50 (Adenosine receptor A3 [6]): 7.40 | Efficacy [9]: > 90% | pEC50 (Adenosine receptor A2b): 5.94 | pKi (Adenosine receptor A3 [7]): 8.41 | pEC50 (Adenosine receptor A2a [8]): 8.27 | Efficacy (Adenosine receptor A2a [8]): > 90%

CCn1nnc([C@H]2O[C@@H](n3cnc4c(NC5CC5)ncnc43)[C@H](O)[C@@H]2O)n1
pEC50 (Adenosine receptor A1 [1]): 8.06 | Efficacy [2]: > 90% | pKi (Adenosine receptor A2a [4]): 7.03 | pKi (Adenosine receptor A1 [5]): 9.17 | pEC50 (Adenosine receptor A3 [6]): 7.29 | Efficacy [9]: > 90% | pEC50 (Adenosine receptor A2b): 6.17 | pKi (Adenosine receptor A3 [7]): 8.10 | pEC50 (Adenosine receptor A2a [8]): 8.01 | Efficacy (Adenosine receptor A2a [8]): > 90%

CCn1nnc([C@H]2O[C@@H](n3cnc4c(N[C@H]5C[C@@H]6CC[C@@H]5C6)nc(Cl)nc43)[C@H](O)[C@@H]2O)n1 (racemic)
pEC50 (Adenosine receptor A1 [1]): 7.99 | Efficacy [2]: > 90% | pKi (Adenosine receptor A2a [4]): 6.79 | pKi (Adenosine receptor A1 [5]): 9.14 | pEC50 (Adenosine receptor A3 [6]): 6.14 | Efficacy [9]: > 90% | pEC50 (Adenosine receptor A2b): < 4.52 | pKi (Adenosine receptor A3 [7]): 7.79 | pEC50 (Adenosine receptor A2a [8]): 7.89 | Efficacy (Adenosine receptor A2a [8]): > 90%
